Experimental data taken from US6608055B2, “Crystalline anticholinergic, processes for preparing it and its use for preparing a pharmaceutical composition” (Boehringer Ingelheim Pharma KG, priority 2001, dated 2003).

Test: storage of the anhydrous form at controlled relative humidity (preservation of anhydrous state)
Type: physicochemical
Conditions: coarse crystals, r.h. = relative humidity
Description: Alternatively to the drying step at elevated temperature under reduced pressure described above, the anhydrous form may also be prepared by storing the crystalline tiotropium bromide monohydrate over a drying agent, preferably over dried silica gel at ambient temperature for a period of 12 to 96 hours, preferably 18 to 72 hours, most preferably at least 24 hours. The anhydrous form thus obtained should be stored more or less dry, depending on the particle size, to preserve its anhydrous state. In the case of coarse crystals of anhydrous tiotropium bromide, which may be prepared for example as described above, storage at <75% r.h. (relative humidity) is sufficient to maintain the anhydrous state. In the micronised state, i.e. where the material has a much larger surface area, water may even be absorbed at lower humidity levels. In order to maintain the anhydrous form in the micronised state, it is therefore advisable to store the anhydrous form of tiotropium bromide over dried silica gel until it is further processed to form the desired inhalable powder containing suitable excipients (e.g. lactose) in addition to tiotropium bromide.

With `C[N+]1(C)C2C[C@H](OC(=O)C(O)(c3cccs3)c3cccs3)CC1[C@H]1OC21` (stereo partly drawn) [anhydrous tiotropium bromide, (1α,2β,4β,5α,7β)-7-[(hydroxydi-2-thienylacetyl)oxy]-9,9-dimethyl-3-oxa-9-azoniatricyclo[3.3.1.0^2,4]nonane-bromide] the “relative humidity of storage sufficient to maintain the anhydrous state” value was less than 75 % r.h.
